From US9073928B2, “Tosylate salt of cyclopropanecarboxylic acid 4-(6-chloro-3-methyl-4, 10-dihydro-3H-2,3,4,9-tetrabenzo[f]azulene-9-carbonyl)-2-fluorobenzylamide” (Vantia Limited, priority 2010, dated 2015)
In brackets after ≈: the same amount, converted by molar mass.

Experiments:
V1a vasopressin receptor = V1a vasopressin receptor (Homo sapiens, UniProt P37288); conditions: dysmenorrhoea patients, oral; cited from earlier work
[1] = Oral availability: plasma exposure in rats after oral dosing of suspensions; type: in vivo; conditions: rat, suspension in 0.5% HPMC, 10 mg/kg p.o.
Source text: The plasma exposure in rats following dosing with the cyclopropanecarboxylic acid 4-(6-chloro-3-methyl-4,10-dihydro-3H-2,3,4,9-tetraazabenzo[f]azulene-9-carbonyl)-2-fluoro-benzylamide para-toluenesulphonate (“Tosylate”) has been examined in comparison with the corresponding free base, cyclopropanecarboxylic acid 4-(6-chloro-3-methyl-4,10-dihydro-3H-2,3,4,9-tetraazabenzo[f]azulene-9-carbonyl)-2-fluoro-benzylamide (“Free Base”).

[2] = molecular target: T1, cloned human V1a receptor (Homo sapiens, UniProt P37288); assay: In vitro functional calcium mobilisation assay (FLIPR), antagonist activity; type: cell-based; conditions: read-out: mean fpKi (Human V1a) (converted)
T1 construct: expressed in transfected cells
T1 sequence (P37288 whole entry): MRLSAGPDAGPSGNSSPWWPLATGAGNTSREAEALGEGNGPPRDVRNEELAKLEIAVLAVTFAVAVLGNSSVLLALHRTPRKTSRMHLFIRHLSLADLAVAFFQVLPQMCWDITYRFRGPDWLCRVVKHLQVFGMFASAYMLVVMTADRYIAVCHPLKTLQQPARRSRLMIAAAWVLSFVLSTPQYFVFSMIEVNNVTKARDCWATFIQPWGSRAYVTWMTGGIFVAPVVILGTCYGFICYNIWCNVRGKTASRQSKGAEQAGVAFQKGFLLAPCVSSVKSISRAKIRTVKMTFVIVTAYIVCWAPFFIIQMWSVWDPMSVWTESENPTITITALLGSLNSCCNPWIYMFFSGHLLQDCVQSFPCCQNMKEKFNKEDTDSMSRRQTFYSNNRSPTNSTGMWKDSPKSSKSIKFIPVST
Source text: The ability of the tosylate salt of the invention to inhibit the vasopressin V1a receptor may be determined using the in vitro functional calcium mobilisation assay (FLIPR) described in PCT/DK2005/000540. This assay measures antagonist activity at a cloned human V1a receptor.

[3] = Thermodynamic solubility in water (spectrophotometric method)
Protocol: (§1) A spectrophotometric method was used. Standards were prepared in methanol (including a methanol blank) and the absorbance measured at 260 and 270 nm, from which a calibration line was generated for each wavelength. The test compound was incubated with agitation in water at 37° C. for 24 h before removal of non-soluble material by centrifugation. The supernatant was analysed against the calibration lines (after subtraction of the water blank response) and the mean of the determinations at the two wavelengths was reported.

physchem = conditions: 37 °C, water, thermodynamic from solid
Protocol: as §1

Chain of V1a vasopressin receptor (P37288 whole entry): as above

COc1ccc(S(=O)(=O)N2c3ccc(Cl)cc3[C@](O)(c3ccccc3Cl)[C@@H]2C(=O)N2CCC[C@H]2C(N)=O)cc1OC [SR49059]
Pain and additional pain-killer use compared to placebo (V1a vasopressin receptor): dose-related decrease in the amount of additional pain-killer taken

Cc1ccc(S(=O)(=O)O)cc1.Cn1ncc2c1Nc1cc(Cl)ccc1N(C(=O)c1ccc(CNC(=O)C3CC3)c(F)c1)C2 [Tosylate, cyclopropanecarboxylic acid 4-(6-chloro-3-methyl-4,10-dihydro-3H-2,3,4,9-tetraazabenzo[f]azulene-9-carbonyl)-2-fluoro-benzylamide para-toluenesulphonate]
AUC(0-t) ([1]; in vivo, po): 670 ng·h/mL
Cmax ([1]; in vivo, po): 209 ng/mL
Plasma exposure / absorption after oral dosing (in words) [1]: significant improvements in plasma exposure
Ki [2]: 3.16 nM
Solubility in water relative to known free base [3]: 8 ×
solubility at 24 h ([3]; 37 °C, thermodynamic from solid): 40 µg/mL

Cn1ncc2c1Nc1cc(Cl)ccc1N(C(=O)c1ccc(CNC(=O)C3CC3)c(F)c1)C2 [Free base, cyclopropanecarboxylic acid 4-(6-chloro-3-methyl-4,10-dihydro-3H-2,3,4,9-tetraazabenzo[f]azulene-9-carbonyl)-2-fluoro-benzylamide, reference compound]
solubility at 24 h (physchem): 5 µg/mL (≈ 11 µM)
